Earlier results, collected in patent US10463707B2, “Process for preparing herbal extracts” (MOLEAC PTE LTD., priority 2015, dated 2019).

Conditions: Chen et al. Planta Med 2009

## C/C=C\c1cc(OC)c(OC)cc1OC [beta asarone]
  Safe limits for beta asarone consumption: 0.115 mg per person per day
Equivalent to the per-person limit
  Safe limits for beta asarone consumption (equivalent): 0.002 mg/kg body weight/day
